Results: patent US11713338B2, “Cyclic peptides multimers targeting α-4-β-7 integrin” (priority 2016, dated 2023)
Like-named read-outs stand apart in the source and are kept apart here.

Biological target: T1, integrin α4β7 (RPMI8866 human cells adhering to MAdCAM-1) (Homo sapiens, UniProt P13612+P26010)
T1 construct: RMP18866 cells, which express integrin α4β7; host or cells: RPMI8866
T1 sequence (P13612 34-1032): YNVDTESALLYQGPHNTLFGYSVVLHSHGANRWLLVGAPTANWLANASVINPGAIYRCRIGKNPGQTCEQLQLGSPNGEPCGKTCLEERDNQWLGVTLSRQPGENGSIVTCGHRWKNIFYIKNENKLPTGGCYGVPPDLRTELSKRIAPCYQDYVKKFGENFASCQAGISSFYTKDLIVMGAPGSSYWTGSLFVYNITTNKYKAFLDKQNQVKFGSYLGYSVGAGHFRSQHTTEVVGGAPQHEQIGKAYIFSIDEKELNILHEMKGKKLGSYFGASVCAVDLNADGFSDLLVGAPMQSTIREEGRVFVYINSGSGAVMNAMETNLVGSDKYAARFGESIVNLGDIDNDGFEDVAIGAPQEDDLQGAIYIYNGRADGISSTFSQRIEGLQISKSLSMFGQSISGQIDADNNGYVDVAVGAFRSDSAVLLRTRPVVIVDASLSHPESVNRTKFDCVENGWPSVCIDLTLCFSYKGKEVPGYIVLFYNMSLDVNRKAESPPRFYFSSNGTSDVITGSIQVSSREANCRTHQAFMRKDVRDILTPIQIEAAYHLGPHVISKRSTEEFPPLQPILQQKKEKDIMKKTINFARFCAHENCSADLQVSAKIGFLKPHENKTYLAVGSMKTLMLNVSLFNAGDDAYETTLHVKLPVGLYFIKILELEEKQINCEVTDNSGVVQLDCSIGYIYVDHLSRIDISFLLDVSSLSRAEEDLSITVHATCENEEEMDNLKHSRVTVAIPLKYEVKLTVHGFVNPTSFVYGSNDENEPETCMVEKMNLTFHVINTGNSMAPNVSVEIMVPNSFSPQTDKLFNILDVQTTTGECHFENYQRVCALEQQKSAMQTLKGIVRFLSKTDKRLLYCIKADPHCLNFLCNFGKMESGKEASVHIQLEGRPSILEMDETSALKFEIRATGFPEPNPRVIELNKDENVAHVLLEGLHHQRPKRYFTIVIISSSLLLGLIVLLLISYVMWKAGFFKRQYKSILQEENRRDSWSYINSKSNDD
T1 sequence (P26010 20-798): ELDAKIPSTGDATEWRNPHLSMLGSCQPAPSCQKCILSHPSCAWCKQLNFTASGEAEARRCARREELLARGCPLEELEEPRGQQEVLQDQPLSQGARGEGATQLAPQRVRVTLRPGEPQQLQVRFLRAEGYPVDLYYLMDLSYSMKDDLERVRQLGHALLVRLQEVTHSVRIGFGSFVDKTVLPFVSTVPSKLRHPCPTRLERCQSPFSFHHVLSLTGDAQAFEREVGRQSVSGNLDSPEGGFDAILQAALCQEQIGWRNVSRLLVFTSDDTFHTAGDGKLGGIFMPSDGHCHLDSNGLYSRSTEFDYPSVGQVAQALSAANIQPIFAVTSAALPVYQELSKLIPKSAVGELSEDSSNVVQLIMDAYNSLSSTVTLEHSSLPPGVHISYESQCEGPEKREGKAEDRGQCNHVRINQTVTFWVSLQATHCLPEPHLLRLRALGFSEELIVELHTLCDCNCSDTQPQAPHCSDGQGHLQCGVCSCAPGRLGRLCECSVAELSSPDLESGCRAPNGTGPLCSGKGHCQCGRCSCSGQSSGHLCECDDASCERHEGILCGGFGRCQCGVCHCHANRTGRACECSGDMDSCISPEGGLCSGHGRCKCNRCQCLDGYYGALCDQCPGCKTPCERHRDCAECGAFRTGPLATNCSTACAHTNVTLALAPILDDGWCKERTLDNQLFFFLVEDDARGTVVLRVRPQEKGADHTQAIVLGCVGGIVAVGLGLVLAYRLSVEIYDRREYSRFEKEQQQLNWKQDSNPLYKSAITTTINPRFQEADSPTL
Assay: Integrin α4β7-MAdCAM cell adhesion assay (RPMI8866 cells)
Type: cell-based
Outline: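 RPMI8866 cells were loaded with […] calcein in PBS for 30 min at 37° C. After plate washes with PBS, fluorescence of adherent cells was read, and no-cell control wells were subtracted from each test well to build the dose response.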

[1] = RPMI8866 cells adhering to MAdCAM, read-out: RPMI8866 Adhesion α4β7/MAdCAM IC50
[2] = RPMI8866 cells, read-out: IC50 in the RPMI8866 cell adhesion assay

CC(C)C[C@@H]1NC(=O)c2ccc(-c3ccc(N4CCN(C(=O)c5ccccc5-c5ccccc5C(=O)N5CCN(c6ccc(-c7ccc8cc7CNC(=O)[C@@H]7CCCN7[C@H](C(=O)NC(C)(C)C)[C@H](C)NC(=O)[C@H]([C@@H](C)O)NC(=O)[C@H](CC(=O)O)NC(=O)[C@H](CC(C)C)NC8=O)cc6)CC5)CC4)cc3)c(c2)CNC(=O)[C@@H]2CCCN2[C@H](C(=O)NC(C)(C)C)[C@H](C)NC(=O)[C@H]([C@@H](C)O)NC(=O)[C@H](CC(=O)O)NC1=O [Compound 517]
IC50 [1]: 10 nM
IC50 [2]: 9.9 nM

CC(C)C[C@@H]1NC(=O)c2ccc(-c3ccc(N4CCN(C(=O)CC[C@H](N)C(=O)N5CCN(c6ccc(-c7ccc8cc7CNC(=O)[C@@H]7CCCN7[C@H](C(=O)NC(C)(C)C)[C@H](C)NC(=O)[C@H]([C@@H](C)O)NC(=O)[C@H](CC(=O)O)NC(=O)[C@H](CC(C)C)NC8=O)cc6)CC5)CC4)cc3)c(c2)CNC(=O)[C@@H]2CCCN2[C@H](C(=O)NC(C)(C)C)[C@H](C)NC(=O)[C@H]([C@@H](C)O)NC(=O)[C@H](CC(=O)O)NC1=O [Compound 494]
IC50 [1]: 50 nM

CC(C)C[C@@H]1NC(=O)c2ccc(-c3ccc(N4CCN(C(=O)c5ccc(C(=O)N6CCN(c7ccc(-c8ccc9cc8CNC(=O)[C@@H]8CCCN8[C@H](C(=O)NC(C)(C)C)[C@H](C)NC(=O)[C@H]([C@@H](C)O)NC(=O)[C@H](CC(=O)O)NC(=O)[C@H](CC(C)C)NC9=O)cc7)CC6)s5)CC4)cc3)c(c2)CNC(=O)[C@@H]2CCCN2[C@H](C(=O)NC(C)(C)C)[C@H](C)NC(=O)[C@H]([C@@H](C)O)NC(=O)[C@H](CC(=O)O)NC1=O [Compound 470]
IC50 [1]: 17 nM

CC(C)C[C@@H]1NC(=O)C[C@H](CCCCN)N(C)C(=O)[C@H](CCCCN)NC(=O)[C@@H]2CCCN2[C@H](C(=O)NC(C)(C)C)[C@H](C)NC(=O)[C@H]([C@@H](C)O)NC(=O)[C@H](CC(=O)O)NC1=O [Compound 456]
IC50 [2]: 199 nM

CC(C)C[C@@H]1NC(=O)c2ccc(-c3ccc(N4CCN(C(=O)[C@H]5CCC[C@H]5C(=O)N5CCN(c6ccc(-c7ccc8cc7CNC(=O)[C@@H]7CCCN7[C@H](C(=O)NC(C)(C)C)[C@H](C)NC(=O)[C@H]([C@@H](C)O)NC(=O)[C@H](CC(=O)O)NC(=O)[C@H](CC(C)C)NC8=O)cc6)CC5)CC4)cc3)c(c2)CNC(=O)[C@@H]2CCCN2[C@H](C(=O)NC(C)(C)C)[C@H](C)NC(=O)[C@H]([C@@H](C)O)NC(=O)[C@H](CC(=O)O)NC1=O [Compound 458]
IC50 [1]: 42 nM

CC(C)C[C@@H]1NC(=O)c2ccc(-c3ccc(N4CCN(C(=O)C56CC7CC(C5)CC(C(=O)N5CCN(c8ccc(-c9ccc%10cc9CNC(=O)[C@@H]9CCCN9[C@H](C(=O)NC(C)(C)C)[C@H](C)NC(=O)[C@H]([C@@H](C)O)NC(=O)[C@H](CC(=O)O)NC(=O)[C@H](CC(C)C)NC%10=O)cc8)CC5)(C7)C6)CC4)cc3)c(c2)CNC(=O)[C@@H]2CCCN2[C@H](C(=O)NC(C)(C)C)[C@H](C)NC(=O)[C@H]([C@@H](C)O)NC(=O)[C@H](CC(=O)O)NC1=O [Compound 460]
IC50 [1]: 62 nM

CC(C)C[C@@H]1NC(=O)c2ccc(-c3ccc(N4CCN(C(=O)c5cc(F)ccc5-c5ccc(F)cc5C(=O)N5CCN(c6ccc(-c7ccc8cc7CNC(=O)[C@@H]7CCCN7[C@H](C(=O)NC(C)(C)C)[C@H](C)NC(=O)[C@H]([C@@H](C)O)NC(=O)[C@H](CC(=O)O)NC(=O)[C@H](CC(C)C)NC8=O)cc6)CC5)CC4)cc3)c(c2)CNC(=O)[C@@H]2CCCN2[C@H](C(=O)NC(C)(C)C)[C@H](C)NC(=O)[C@H]([C@@H](C)O)NC(=O)[C@H](CC(=O)O)NC1=O [Compound 475]
IC50 [1]: 18 nM

CC(C)C[C@@H]1NC(=O)c2ccc(-c3ccc(N4CCN(C(=O)C[C@@H](N)C(=O)N5CCN(c6ccc(-c7ccc8cc7CNC(=O)[C@@H]7CCCN7[C@H](C(=O)NC(C)(C)C)[C@H](C)NC(=O)[C@H]([C@@H](C)O)NC(=O)[C@H](CC(=O)O)NC(=O)[C@H](CC(C)C)NC8=O)cc6)CC5)CC4)cc3)c(c2)CNC(=O)[C@@H]2CCCN2[C@H](C(=O)NC(C)(C)C)[C@H](C)NC(=O)[C@H]([C@@H](C)O)NC(=O)[C@H](CC(=O)O)NC1=O [Compound 493]
IC50 [1]: 45 nM

CC(C)C[C@@H]1NC(=O)c2ccc(-c3ccc(N4CCN(c5ncc([N+](=O)[O-])c(N6CCN(c7ccc(-c8ccc9cc8CNC(=O)[C@@H]8CCCN8[C@H](C(=O)NC(C)(C)C)[C@H](C)NC(=O)[C@H]([C@@H](C)O)NC(=O)[C@H](CC(=O)O)NC(=O)[C@H](CC(C)C)NC9=O)cc7)CC6)n5)CC4)cc3)c(c2)CNC(=O)[C@@H]2CCCN2[C@H](C(=O)NC(C)(C)C)[C@H](C)NC(=O)[C@H]([C@@H](C)O)NC(=O)[C@H](CC(=O)O)NC1=O [Compound 468]
IC50 [1]: 13 nM

CC(C)C[C@@H]1NC(=O)c2ccc(-c3ccc(N4CCN(C(=O)CCCCCCCCCCC(=O)N5CCN(c6ccc(-c7ccc8cc7CNC(=O)[C@@H]7CCCN7[C@H](C(=O)NC(C)(C)C)[C@H](C)NC(=O)[C@H]([C@@H](C)O)NC(=O)[C@H](CC(=O)O)NC(=O)[C@H](CC(C)C)NC8=O)cc6)CC5)CC4)cc3)c(c2)CNC(=O)[C@@H]2CCCN2[C@H](C(=O)NC(C)(C)C)[C@H](C)NC(=O)[C@H]([C@@H](C)O)NC(=O)[C@H](CC(=O)O)NC1=O [Compound 392]
IC50 [1]: 28 nM

CC(C)C[C@@H]1NC(=O)c2ccc(-c3ccc(N4CCN(C(=O)CCC(=O)N5CCN(c6ccc(-c7ccc8cc7CNC(=O)[C@@H]7CCCN7[C@H](C(=O)NC(C)(C)C)[C@H](C)NC(=O)[C@H]([C@@H](C)O)NC(=O)[C@H](CC(=O)O)NC(=O)[C@H](CC(C)C)NC8=O)cc6)CC5)CC4)cc3)c(c2)CNC(=O)[C@@H]2CCCN2[C@H](C(=O)NC(C)(C)C)[C@H](C)NC(=O)[C@H]([C@@H](C)O)NC(=O)[C@H](CC(=O)O)NC1=O [Compound 484]
IC50 [1]: 14 nM

CC(C)C[C@@H]1NC(=O)c2ccc(-c3ccc(N4CCN(Cc5ccc(CN6CCN(c7ccc(-c8ccc9cc8CNC(=O)[C@@H]8CCCN8[C@H](C(=O)NC(C)(C)C)[C@H](C)NC(=O)[C@H]([C@@H](C)O)NC(=O)[C@H](CC(=O)O)NC(=O)[C@H](CC(C)C)NC9=O)cc7)CC6)cc5)CC4)cc3)c(c2)CNC(=O)[C@@H]2CCCN2[C@H](C(=O)NC(C)(C)C)[C@H](C)NC(=O)[C@H]([C@@H](C)O)NC(=O)[C@H](CC(=O)O)NC1=O [Compound 500]
IC50 [1]: 32 nM

CC(C)C[C@@H]1NC(=O)c2ccc(-c3ccc(N4CCN(C(=O)COCC(=O)N5CCN(c6ccc(-c7ccc8cc7CNC(=O)[C@@H]7CCCN7[C@H](C(=O)NC(C)(C)C)[C@H](C)NC(=O)[C@H]([C@@H](C)O)NC(=O)[C@H](CC(=O)O)NC(=O)[C@H](CC(C)C)NC8=O)cc6)CC5)CC4)cc3)c(c2)CNC(=O)[C@@H]2CCCN2[C@H](C(=O)NC(C)(C)C)[C@H](C)NC(=O)[C@H]([C@@H](C)O)NC(=O)[C@H](CC(=O)O)NC1=O [Compound 390]
IC50 [1]: 13 nM

CC(C)C[C@@H]1NC(=O)c2ccc(-c3ccc(N4CCN(C(=O)[C@H](CCCCNC(=O)CCCCCC(=O)NCCCC[C@H](NC(=O)OCc5ccccc5)C(=O)N5CCN(c6ccc(-c7ccc8cc7CNC(=O)[C@@H]7CCCN7[C@H](C(=O)NC(C)(C)C)[C@H](C)NC(=O)[C@H]([C@@H](C)O)NC(=O)[C@H](CC(=O)O)NC(=O)[C@H](CC(C)C)NC8=O)cc6)CC5)NC(=O)OCc5ccccc5)CC4)cc3)c(c2)CNC(=O)[C@@H]2CCCN2[C@H](C(=O)NC(C)(C)C)[C@H](C)NC(=O)[C@H]([C@@H](C)O)NC(=O)[C@H](CC(=O)O)NC1=O [Compound 498]
IC50 [1]: 36 nM
